In patent US20240052582A1, “COMPOSTABLE TURF WITH DECOMPOSITION INHIBITOR” (Polytex Sportbelage Produktions-GmbH, priority 2017, published 2024):

Test: Amount of decomposition inhibitor necessary for a minimum life expectancy of compostable artificial or hybrid turf
Conditions: inhibitor within backing
Description: Due to the wide variety of use case scenarios, stadium architectures and climatic conditions, the amount of decomposition inhibitor that ensures a sufficient life expectancy without unduly delaying the decomposition process is preferably determined empirically.

Oc1cc(Cl)ccc1Oc1ccc(Cl)cc1Cl [Triclosan, 5-chlor-2-(2,4-dichlorphenoxy)-phenol]
Amount of Decomposition inhibitor necessary for a life expectancy of the turf material of at least [. . .] 6 Month (life expectancy at least 6 Month): 0.0005% by % by weight of backing | Amount of Decomposition inhibitor necessary for a life expectancy of the turf material of at least [. . .] 12 Month (life expectancy at least 12 Month): 0.001% by % by weight of backing
